Measurements: the supplement of paper PMC8967900

What was measured:
Assay in all cases: selective drug sensitivity score (sDSS, relative to normal bone marrow) (sDSS (score)); higher = more potent and effective on the cell line relative to normal bone marrow cells
Details in all cases: 72 h
[1] = test system: MOLT-4
[2] = test system: COG-LL-355h
[3] = test system: MOLT-14
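Note: ALL cell lines in 384-well plates, five doses spanning 10,000-fold, each plate scaled between vehicle and 100 µmol/L benzalkonium chloride controls, sDSS an adapted area-under-curve metric.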

CC(C)Oc1ccc(C(=O)N[C@H](CNC(=O)CN(C)C)Cc2ccc(-c3cn4cccc([C@H](C)O)c4n3)cc2)cc1Cl (top concentration 10000 nM)
selective drug sensitivity score [1]: 18.2
selective drug sensitivity score [2]: -2.62
selective drug sensitivity score [3]: 17.4

CCn1c(-c2nonc2N)nc2cnc(Oc3cccc(NC(=O)c4ccc(OCCN5CCOCC5)cc4)c3)cc21 (top concentration 10000 nM)
selective drug sensitivity score [1]: 1.86
selective drug sensitivity score [2]: -2.34
selective drug sensitivity score [3]: 2.46

CC(C)(C#N)c1cc(Cn2cncn2)cc(C(C)(C)C#N)c1 [Anastrozole] (top concentration 10000 nM)
selective drug sensitivity score [1]: 0
selective drug sensitivity score [2]: 0
selective drug sensitivity score [3]: 0

Cc1sc2c(c1C)C(c1ccc(Cl)cc1)=N[C@@H](CC(=O)Nc1ccc(O)cc1)c1nnc(C)n1-2 [Birabresib] (top concentration 10000 nM)
selective drug sensitivity score [1]: -4.68
selective drug sensitivity score [2]: 2.42
selective drug sensitivity score [3]: 1.72

Nc1ccn([C@@H]2O[C@H](CO)[C@@H](O)[C@@H]2O)c(=O)n1 [Cytarabine] (top concentration 10000 nM)
selective drug sensitivity score [1]: 19
selective drug sensitivity score [2]: 4.9
selective drug sensitivity score [3]: 25.6

COc1cccc2c1C(=O)c1c(O)c3c(c(O)c1C2=O)C[C@@](O)(C(C)=O)C[C@@H]3O[C@H]1C[C@H](N)[C@H](O)[C@H](C)O1 [Daunorubicin] (top concentration 1000 nM)
selective drug sensitivity score [1]: 7.86
selective drug sensitivity score [2]: 5.06
selective drug sensitivity score [3]: 9.66

Nc1ncn([C@H]2C[C@H](O)[C@@H](CO)O2)c(=O)n1 [Decitabine] (top concentration 10000 nM)
selective drug sensitivity score [1]: -0.96
selective drug sensitivity score [2]: -0.96
selective drug sensitivity score [3]: 0.44

CCN(CC)C(=S)SSC(=S)N(CC)CC [Disulfiram(+CuCl2)] (top concentration 50000 nM)
selective drug sensitivity score [1]: -2.12
selective drug sensitivity score [2]: 1.48
selective drug sensitivity score [3]: -2.02

Nc1nc(F)nc2c1ncn2[C@@H]1O[C@H](CO)[C@@H](O)[C@@H]1O [Fludarabine] (top concentration 10000 nM)
selective drug sensitivity score [1]: -1.9
selective drug sensitivity score [2]: 5.1
selective drug sensitivity score [3]: 4.3

Nc1nc(OCc2cc(Br)cs2)c2[nH]cnc2n1 [Lomeguatrib] (top concentration 10000 nM)
selective drug sensitivity score [1]: 0
selective drug sensitivity score [2]: 1
selective drug sensitivity score [3]: 0

Cc1cc(OCc2nnc(SC3CCCC3)n2-c2cccnc2)ccc1-c1ccc(S(C)(=O)=O)cc1 [NMS-873] (top concentration 10000 nM)
selective drug sensitivity score [1]: 17.4
selective drug sensitivity score [2]: 4.56
selective drug sensitivity score [3]: 7.16

COC(=O)c1ccc2c(c1)NC(=O)/C2=C(\Nc1ccc(N(C)C(=O)CN2CCN(C)CC2)cc1)c1ccccc1 [Nintedanib] (top concentration 10000 nM)
selective drug sensitivity score [1]: -1.96
selective drug sensitivity score [2]: -0.16
selective drug sensitivity score [3]: 1.64

O=C(c1cc(Cc2n[nH]c(=O)c3ccccc23)ccc1F)N1CCN(C(=O)C2CC2)CC1 [Olaparib] (top concentration 10000 nM)
selective drug sensitivity score [1]: 4.18
selective drug sensitivity score [2]: 3.38
selective drug sensitivity score [3]: 10.4

O=C(O)C(=O)O.[NH-][C@@H]1CCCC[C@H]1[NH-].[Pt+2] [Oxaliplatin] (top concentration 100000 nM)
selective drug sensitivity score [1]: 12.4
selective drug sensitivity score [2]: 4.92
selective drug sensitivity score [3]: 9.22

CS(=O)(=O)N1CCN(Cc2cc3nc(-c4cccc5[nH]ncc45)nc(N4CCOCC4)c3s2)CC1 [Pictilisib] (top concentration 10000 nM)
selective drug sensitivity score [1]: 9.36
selective drug sensitivity score [2]: 12
selective drug sensitivity score [3]: -2.04

CCOC(=O)C1=CCCC[C@H]1S(=O)(=O)Nc1ccc(F)cc1Cl [Resatorvid] (top concentration 10000 nM)
selective drug sensitivity score [1]: 0
selective drug sensitivity score [2]: 0
selective drug sensitivity score [3]: 0

CO[C@H]1C[C@@H]2CC[C@@H](C)[C@@](O)(O2)C(=O)C(=O)N2CCCC[C@H]2C(=O)O[C@H]([C@H](C)C[C@@H]2CC[C@@H](OP(C)(C)=O)[C@H](OC)C2)CC(=O)[C@H](C)/C=C(\C)[C@@H](O)[C@@H](OC)C(=O)[C@H](C)C[C@H](C)/C=C/C=C/C=C/1C [Ridaforolimus] (top concentration 100 nM)
selective drug sensitivity score [1]: -2.04
selective drug sensitivity score [2]: -2.14
selective drug sensitivity score [3]: -2.44

CCc1c2c(nc3ccc(O)cc13)-c1cc3c(c(=O)n1C2)COC(=O)[C@]3(O)CC [SN-38] (top concentration 10000 nM)
selective drug sensitivity score [1]: 28.2
selective drug sensitivity score [2]: 14.7
selective drug sensitivity score [3]: 28

CC[C@@H](C(=O)[C@@H](C)[C@@H](O)[C@H](C)[C@@H]1O[C@@H]([C@@H](CC)C(=O)O)CC[C@@H]1C)[C@H]1O[C@]2(C=C[C@@H](O)[C@]3(CC[C@@](C)([C@H]4CC[C@](O)(CC)[C@H](C)O4)O3)O2)[C@H](C)C[C@@H]1C [Salinomycin] (top concentration 50000 nM)
selective drug sensitivity score [1]: -5.3
selective drug sensitivity score [2]: -3.1
selective drug sensitivity score [3]: 6.3

CNC(=O)CN1CCC(Oc2cc3c(Nc4cccc(Cl)c4F)ncnc3cc2OC)CC1 [Sapitinib] (top concentration 1000 nM)
selective drug sensitivity score [1]: 0
selective drug sensitivity score [2]: 0
selective drug sensitivity score [3]: 0

O[C@H]1CC[C@H](Nc2ncc3nc(Nc4c(F)cc(F)cc4F)n([C@H]4CCOC4)c3n2)CC1 [Tanzisertib] (top concentration 10000 nM)
selective drug sensitivity score [1]: 0
selective drug sensitivity score [2]: 0.8
selective drug sensitivity score [3]: 0

CO[C@H]1C[C@@H]2CC[C@@H](C)[C@@](O)(O2)C(=O)C(=O)N2CCCC[C@H]2C(=O)O[C@H]([C@H](C)C[C@@H]2CC[C@@H](OC(=O)C(C)(CO)CO)[C@H](OC)C2)CC(=O)[C@H](C)/C=C(\C)[C@@H](O)[C@@H](OC)C(=O)[C@H](C)C[C@H](C)/C=C/C=C/C=C/1C [Temsirolimus] (top concentration 100 nM)
selective drug sensitivity score [1]: -1.24
selective drug sensitivity score [2]: -2.54
selective drug sensitivity score [3]: -4.24

COc1cc([C@@H]2c3cc4c(cc3[C@@H](O[C@@H]3O[C@@H]5CO[C@@H](c6cccs6)O[C@H]5[C@H](O)[C@H]3O)[C@H]3COC(=O)[C@H]23)OCO4)cc(OC)c1O [Teniposide] (top concentration 10000 nM)
selective drug sensitivity score [1]: 0
selective drug sensitivity score [2]: 0
selective drug sensitivity score [3]: 0

Oc1nc(-c2ccc(C(F)(F)F)cc2)nc2c1CSCC2 [XAV939] (top concentration 10000 nM)
selective drug sensitivity score [1]: -0.14
selective drug sensitivity score [2]: 0.46
selective drug sensitivity score [3]: -0.14
